Test results as given in patent US9603896B2, “Peptide compounds and methods of production and use thereof” (priority 2012, dated 2017).
Square brackets hold non-standard residues; d marks the D form. Ends that are not written are not given here. Peptide text beside a SMILES is read from it. AEEA = NCCOCCOCC(=O)O

Experiments:
[1] = system: Pseudomonas aeruginosa ATCC® 27853™; assay type: cell-based
Description: The three peptide compounds BCC01-5RMP (SEQ ID NO:21), BCC02-5RMP (SEQ ID NO:22), and BCC03-5RMP (SEQ ID NO:23) were assayed for in vitro bactericidal activity against Pseudomonas aeruginosa, Escherichia coli, Salmonella typhimurium, and Acinetobacter baumannii. […] The CFU remaining at the end of 60 to 180 minute incubation was determined, and the data plotted as a log reduction in CFU/ml.
Tables 4-6 show the results of various peptides and peptide compounds against P. aeruginosa and E. coli strains. Tables 4 and 5 show the results of an investigation of the effects of peptide or peptide compounds BCC03-5RMP (SEQ ID NO:23), BCC03-MP (SEQ ID NO:24) and BCC03-5R (SEQ ID NO:20) against P. aeruginosa ATCC® strain 27853™ and E. coli ATCC® strain 25922™ (American Type Culture Collection, Manassas, Va.). […] Table 6 compares the activity of several other compounds, including the “5R” versions of BCC01, i.e., SEQ ID NO:18 (which comprises SEQ ID NO:1 with five additional arginines), the “5R” version of BCC02 (i.e., SEQ ID NO:19, which comprises SEQ ID NO:2 with five additional arginines), and BCC03-5RMP (SEQ ID NO:23), and BCC03-MP (SEQ ID NO:24, i.e., without the five additional R residues). The data generally indicate the superiority of BCC03-5RMP (SEQ ID NO:23) against E. coli, and the superiority of the 5R or 5RMP versions of the peptide over the “AEEA only” peptide against P. aeruginosa.
(§1) For FIGS. 10-13, in vitro bactericidal assays were performed using a starting inoculum of 1×10^6 CFU/ml of the bacterial suspension. The CFU remaining at the end of the 60-180 minute incubation was determined, and the data was plotted as log reduction in CFU/ml.
(§2) In particular, each of the test peptides (CAP37 peptides 120-146WR, 120-146WH, and 95-122 (SEQ ID NOs: 30, 31, and 26, respectively)) was used at 25, 12.5, 6.25, and 3.12 μM. Gentamicin was used at 4 μg/ml. 1×10^6/ml Acinetobacter baumannii ATCC® BAA-747″ or Pseudomonas aeruginosa ATCC® 27853™ (American Type Culture Collection, Manassas, Va.) were incubated with the peptides, negative buffer control (tryptone saline), and positive control gentamicin at pH 5.5 or 7.2. A 60 minute incubation was used for Acinetobacter baumannii ATCC® BAA747™, while a 180 minute incubation was used for Pseudomonas aeruginosa ATCC® 27853™. 50 μl aliquots were plated out on agar plates and incubated overnight. Colony forming units were counted after overnight incubation and CFU/ml calculated.
For FIG. 14, 1×10^6/ml Pseudomonas aeruginosa ATCC® 27853™ were incubated with each of the test peptides (CAP37 peptides 120-146WR, 120-146WH, 120-146QR, 120-146QH, 120-146QR-5RMP, and 120-146QH-5RMP (SEQ ID NOs: 30, 31, 28, 29, 32, and 33, respectively)) at 150, 75, and 37.5 μg/ml, or negative buffer control (tryptone saline), for 180 minutes at pH 5.5. 50 μl aliquots were plated out on agar plates and incubated overnight. Colony forming units were counted after overnight incubation and CFU/ml calculated.

[2] = system: P. aeruginosa (ATCC® 27853™); test: Pseudomonas keratitis model in the mouse eye; assay type: in vivo
Description: A circular wound was created on the mouse cornea by removing the epithelium and infected with 10^5 colony forming units (CFU) of P. aeruginosa (ATCC® 27853™ (American Type Culture Collection, Manassas, Va.)). Infected wounds were treated with saline (0.9% sodium chloride, vehicle control) or saline containing indicated concentrations of peptide every 15 minutes for 2 hours, then every 30 minutes for 3 hours on the first day. Infected wounds were treated twice on the second day and once on the third day. Mice were killed at 48 hours post-infection, and CFU/eye were quantified. The means were plotted and are representative of 5 to 9 mice per group. Mann Whitney test was performed for each group as compared to the saline control group. *P=0.014.
A circular wound (2 mm) was created on the mouse cornea by removing the epithelium and infecting the wound with 10^5 CFU of P. aeruginosa (ATCC® 27853™ (American Type Culture Collection, Manassas, Va.)). Infected wounds were treated with saline or saline containing indicated concentrations of peptide every 15 minutes for 2 hours, then every 30 minutes for 3 hours on the first day. Infected wounds were treated twice on the second day and once on the third day. Mice were killed at 48 hours post-infection, and the colony forming units per eye (CFU/eye) were quantified. The means are plotted and are representative of 5 to 9 mice per group. Mann Whitney test was performed for each group as compared to the saline control group.
For FIGS. 15-17, in vivo bactericidal activity of the peptides was also investigated using the standard Pseudomonas keratitis model in the mouse eye (FIGS. 15-17). Peptides 120-146QR-5RMP (SEQ ID NO:32), 120-146WH (SEQ ID NO:31), and 120-146WR (SEQ ID NO: 30) were applied topically at doses of 2, 5, 10, and 20 mg/ml to the wounded cornea that had been infected with 10^5 CFU of Pseudomonas aeruginosa. The efficacies of the peptides were compared to treatment with the vehicle control. Mice were euthanized at 48 hours post infection, and the CFU/eye were quantified.

[3] = system: Acinetobacter baumannii ATCC® BAA-747™; test: In vitro bactericidal assay (CFU remaining, log reduction); assay type: cell-based; settings: for reduction of CFU/ml: 60 minutes, highest peptide concentrations (25 μM)
Description: The three peptide compounds BCC01-5RMP (SEQ ID NO:21), BCC02-5RMP (SEQ ID NO:22), and BCC03-5RMP (SEQ ID NO:23) were assayed for in vitro bactericidal activity against Pseudomonas aeruginosa, Escherichia coli, Salmonella typhimurium, and Acinetobacter baumannii. The starting inoculum for all experiments was 1×10^6 colony forming units (CFU)/ml. The CFU remaining at the end of 60 to 180 minute incubation was determined, and the data plotted as a log reduction in CFU/ml.
as §1, §2

Compound: CC(C)C[C@H](NC(=O)[C@H](CCCNC(=N)N)NC(=O)CNC(=O)CNC(=O)[C@H](CO)NC(=O)[C@H](CCCNC(=N)N)NC(=O)[C@H](CCC(N)=O)NC(=O)[C@H](CO)NC(=O)CNC(=O)[C@H](Cc1c[nH]c2ccccc12)NC(=O)CNC(=O)[C@H](C)NC(=O)[C@@H](NC(=O)[C@H](CCC(N)=O)NC(=O)[C@H](CS)NC(=O)[C@H](CCCNC(=N)N)NC(=O)[C@@H](NC(=O)CNC(=O)[C@H](CCCNC(=N)N)NC(=O)[C@H](CCCNC(=N)N)NC(=O)[C@H](CCCNC(=N)N)NC(=O)[C@H](CCCNC(=N)N)NC(=O)COCCOCCNC(=O)COCCOCCN)[C@@H](C)O)C(C)C)C(=O)N[C@@H](CO)C(=O)N[C@@H](CCCNC(=N)N)C(=O)N[C@@H](Cc1ccccc1)C(=O)N1CCC[C@H]1C(=O)N[C@@H](CCCNC(=N)N)C(=O)N[C@@H](Cc1ccccc1)C(=O)N[C@H](C(=O)N[C@@H](CC(N)=O)C(=O)N[C@H](C(=O)N[C@@H](CCCNC(=N)N)C(=O)O)C(C)C)C(C)C [120-146QR-5RMP] (H-[AEEA][AEEA]RRRRGTRCQVAGWGSQRSGGRLSRFPRFVNVR-OH)
- reduction in CFU (FIG. 14) ([1]; pH 5.5, 180 minutes, 75 μg/ml): ~6 log
- mice with no viable bacteria in the eye after treatment ([2]; 10 and 20 mg/ml groups together): Six of the 10
- CFU/eye at 48 hours post infection vs saline ([2]; topical, doses of 10 and 20 mg/ml): significantly reduced the CFU/eye

Compound: GTRCQVAGWGSWRSGGRLSRFPRFVNV [Peptide 120-146WR]
- activity against P. aeruginosa ([1]; 120-146WR at 25 μM, gentamicin 4 μg/ml): highly active
- reduction of CFU (FIG. 14) ([1]; pH 5.5, 180 minutes, highest concentrations (150 μg/ml)): 6 logs
- reduction of CFU/ml ([1]; pH 7.2, 180 minutes, highest concentrations of peptides (25 μM)): 6 logs
- bactericidal activity against Pseudomonas aeruginosa ([1]; pH 7.2, 180 minutes, peptides at 25 μM): as effective as the standard antibiotic gentamicin
- activity against A. baumannii ([3]; 12.5 μM): highly active
- activity against A. baumannii ([3]; 25 μM): highly active
- reduction of CFU/ml ([3]; pH 5.5): ~4 logs
- reduction of CFU/ml ([3]; pH 7.2): ~5.5 logs
- infection (CFU/eye) at 48 hours post infection vs saline ([2]; topical, 5, 10, and 20 mg/ml): significantly reduced infection
